We go through 2 compounds from paper PMC5761851, “Application of a phenotypic drug discovery strategy to identify biological and chemical starting points for inhibition of TSLP production in lung epithelial cells” (PLoS ONE, 2018).

Where “and” joins values, the source holds several entries; their conditions need not be identical. Equal entries are not always repeated. Where two headings read alike, the source gives them in different places.

The target in one test is PDE6 (Bos taurus, UniProt P11541+P23439). Kind of test: BioPrint panel: PDE6. Format: biochemical. Here is the method: General selectivity profiling was performed at Eurofins Pharma Discovery Services using the BioPrint® panel and reference database. The panel included 104 binding assays (non-peptide, peptide and nuclear receptors, ion channels and amine transporters) and 41 cell based and enzyme assays (including 10 kinases, 9 proteases and 5 phosphodiesterases) (S4 Table). More than 70% were human targets. Compound 4 was tested at a concentration of 1 μM in duplicate (10 μM for P-gp and CYP enzymes). The resulting bioactivity fingerprint was compared with a database of >2,500 BioPrint marketed drugs and reference compounds. IC50 values for selected activities were further characterized at 8 concentrations in duplicate.
PDE6, sequence (P11541 2-856): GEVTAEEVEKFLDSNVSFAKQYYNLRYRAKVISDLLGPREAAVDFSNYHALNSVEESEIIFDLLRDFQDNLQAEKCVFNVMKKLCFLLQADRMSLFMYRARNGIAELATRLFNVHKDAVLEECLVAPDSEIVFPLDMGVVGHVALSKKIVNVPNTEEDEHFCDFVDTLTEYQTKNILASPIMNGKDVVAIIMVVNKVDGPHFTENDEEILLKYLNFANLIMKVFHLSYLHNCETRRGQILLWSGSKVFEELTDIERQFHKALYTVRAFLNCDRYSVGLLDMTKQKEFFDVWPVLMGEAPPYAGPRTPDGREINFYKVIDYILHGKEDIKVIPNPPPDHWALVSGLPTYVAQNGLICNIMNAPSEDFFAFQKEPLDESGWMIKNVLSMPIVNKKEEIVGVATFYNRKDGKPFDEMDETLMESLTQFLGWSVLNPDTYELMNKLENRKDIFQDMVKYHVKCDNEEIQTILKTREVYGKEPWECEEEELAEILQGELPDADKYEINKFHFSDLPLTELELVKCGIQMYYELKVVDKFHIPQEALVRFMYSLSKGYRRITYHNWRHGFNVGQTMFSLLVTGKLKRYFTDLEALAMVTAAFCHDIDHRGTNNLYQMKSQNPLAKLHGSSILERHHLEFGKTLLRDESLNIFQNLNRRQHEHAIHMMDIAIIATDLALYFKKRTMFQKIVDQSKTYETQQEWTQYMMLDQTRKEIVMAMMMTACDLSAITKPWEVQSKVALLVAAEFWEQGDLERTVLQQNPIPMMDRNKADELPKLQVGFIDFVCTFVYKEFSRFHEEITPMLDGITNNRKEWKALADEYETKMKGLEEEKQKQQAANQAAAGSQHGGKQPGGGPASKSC
PDE6, sequence (P23439 2-850): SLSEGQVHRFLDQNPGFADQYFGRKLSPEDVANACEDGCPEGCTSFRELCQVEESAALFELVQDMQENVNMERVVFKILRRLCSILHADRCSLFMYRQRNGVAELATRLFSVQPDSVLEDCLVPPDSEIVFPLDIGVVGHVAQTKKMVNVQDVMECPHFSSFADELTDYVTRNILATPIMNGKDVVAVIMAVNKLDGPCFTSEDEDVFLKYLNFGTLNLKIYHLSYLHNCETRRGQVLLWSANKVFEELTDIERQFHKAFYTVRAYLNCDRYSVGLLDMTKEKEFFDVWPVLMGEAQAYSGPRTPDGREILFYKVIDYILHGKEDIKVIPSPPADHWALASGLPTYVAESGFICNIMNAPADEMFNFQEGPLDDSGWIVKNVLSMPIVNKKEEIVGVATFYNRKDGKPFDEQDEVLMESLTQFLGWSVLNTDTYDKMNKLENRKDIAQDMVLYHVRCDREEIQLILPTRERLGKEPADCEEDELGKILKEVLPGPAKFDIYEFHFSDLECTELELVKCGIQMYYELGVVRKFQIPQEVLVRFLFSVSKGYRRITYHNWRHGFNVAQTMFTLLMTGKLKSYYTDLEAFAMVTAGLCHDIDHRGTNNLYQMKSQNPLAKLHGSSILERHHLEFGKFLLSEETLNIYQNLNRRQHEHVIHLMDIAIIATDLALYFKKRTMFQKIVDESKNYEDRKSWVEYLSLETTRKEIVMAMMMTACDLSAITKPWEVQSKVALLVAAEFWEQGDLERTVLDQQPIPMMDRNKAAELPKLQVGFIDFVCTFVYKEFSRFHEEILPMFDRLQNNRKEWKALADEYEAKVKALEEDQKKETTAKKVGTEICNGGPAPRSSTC
PDE6, sequence (P04972 whole entry partner): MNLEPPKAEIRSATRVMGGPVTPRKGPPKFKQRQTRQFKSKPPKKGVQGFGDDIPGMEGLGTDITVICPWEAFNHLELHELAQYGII

A further test addresses T1, A2B (Homo sapiens, UniProt P29275).
T1 construct: purchased Eurofins Pharma Discovery Services (KinaseProfiler; Cerep BioPrint panel)
Kind of test: BioPrint panel: A2B (h) (antagonist). Format: binding. Particulars: 1 micromolar, read-out: percentage of inhibition of activity. An excerpt:
(§1) Supplement pone.0189247.s004.xlsx, sheet "Bioprint Selectivity Panel" | column: %

For the next test, the target named is T2, A3 (Homo sapiens, UniProt P0DMS8).
T2 construct: purchased Eurofins Pharma Discovery Services (KinaseProfiler; Cerep BioPrint panel)
T2 sequence (P0DMS8 whole entry): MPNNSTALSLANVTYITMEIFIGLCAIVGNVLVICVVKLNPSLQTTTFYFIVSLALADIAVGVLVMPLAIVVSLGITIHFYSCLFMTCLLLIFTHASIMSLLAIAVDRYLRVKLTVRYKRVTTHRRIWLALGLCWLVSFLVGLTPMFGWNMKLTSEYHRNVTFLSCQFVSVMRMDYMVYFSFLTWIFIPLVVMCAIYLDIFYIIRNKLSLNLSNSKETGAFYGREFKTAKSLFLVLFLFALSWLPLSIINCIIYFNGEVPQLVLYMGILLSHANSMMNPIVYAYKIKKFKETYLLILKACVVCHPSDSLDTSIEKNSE
Kind of test: BioPrint panel: A3 (h) (agonist). Format: binding. Particulars: 1 micromolar, read-out: percentage of inhibition of activity.
Description: as §1

A further test deals with T3, B2 (Homo sapiens, UniProt P30411).
T3 construct: purchased Eurofins Pharma Discovery Services (KinaseProfiler; Cerep BioPrint panel)
Kind of test: BioPrint panel: B2 (h) (agonist). The test is classed as binding. The note with it: 1 micromolar, read-out: percentage of inhibition of activity.
Description: as §1

The target of the next test is T4, CB1 (Homo sapiens, UniProt P21554).
T4 construct: purchased Eurofins Pharma Discovery Services (KinaseProfiler; Cerep BioPrint panel)
Kind of test: BioPrint panel: CB1 (h) (agonist). The test is classed as binding. Particulars: 1 micromolar, read-out: percentage of inhibition of activity.
Description: as §1

The next test has as its target T5, CB2 (Homo sapiens, UniProt P34972).
T5 construct: purchased Eurofins Pharma Discovery Services (KinaseProfiler; Cerep BioPrint panel)
Kind of test: BioPrint panel: CB2 (h) (agonist). Format: binding. The note with it: 1 micromolar, read-out: percentage of inhibition of activity.
Description: as §1

The target in a further test is T6, D1 (Homo sapiens, UniProt P21728).
T6 construct: purchased Eurofins Pharma Discovery Services (KinaseProfiler; Cerep BioPrint panel)
Kind of test: BioPrint panel: D1 (h) (antagonist). The test is classed as binding. Particulars: 1 micromolar, read-out: percentage of inhibition of activity.
Description: as §1

In a further test the test system is NMDA. Kind of test: BioPrint panel: NMDA (antagonist). Format: binding. Particulars: 1 micromolar.
Description: as §1

Test [1] has as its system glycine (strychnine-insensitive). Kind of test: BioPrint panel: glycine (strychnine-insensitive)(antagonist). Format: binding. Particulars: 1 micromolar.
Description: as §1

Another test deals with TNF-alpha. Kind of test: BioPrint panel: TNF-alpha (h) (agonist). Format: binding, human. The note with it: 1 micromolar.
Description: as §1

Another test deals with I1. Kind of test: BioPrint panel: I1 (agonist). Format: binding. The note with it: 1 micromolar.
Description: as §1

The target of a further test is T7, BLT1 (LTB4) (Homo sapiens, UniProt Q15722).
T7 construct: purchased Eurofins Pharma Discovery Services (KinaseProfiler; Cerep BioPrint panel)
T7 sequence (Q15722 whole entry): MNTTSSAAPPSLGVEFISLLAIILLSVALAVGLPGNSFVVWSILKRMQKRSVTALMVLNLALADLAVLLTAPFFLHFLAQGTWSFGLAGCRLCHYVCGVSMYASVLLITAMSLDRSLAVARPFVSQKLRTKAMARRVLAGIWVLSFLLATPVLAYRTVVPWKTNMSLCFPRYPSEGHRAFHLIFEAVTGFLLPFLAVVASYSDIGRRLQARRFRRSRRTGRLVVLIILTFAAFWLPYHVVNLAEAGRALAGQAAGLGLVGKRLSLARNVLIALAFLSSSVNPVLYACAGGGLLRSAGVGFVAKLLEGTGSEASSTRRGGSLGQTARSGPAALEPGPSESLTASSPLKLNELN
Kind of test: BioPrint panel: BLT1 (LTB4) (h) (agonist). The test is classed as binding. Particulars: 1 micromolar, read-out: percentage of inhibition of activity.
Description: as §1

Another test deals with T8, CysLT1 (LTD4) (Homo sapiens, UniProt Q9Y271).
T8 construct: purchased Eurofins Pharma Discovery Services (KinaseProfiler; Cerep BioPrint panel)
Kind of test: BioPrint panel: CysLT1 (LTD4) (h) (agonist). Particulars: 1 micromolar, read-out: percentage of inhibition of activity. The test is classed as binding.
Description: as §1

In another test the target is T9, M2 (Homo sapiens, UniProt P08172).
T9 construct: purchased Eurofins Pharma Discovery Services (KinaseProfiler; Cerep BioPrint panel)
Kind of test: BioPrint panel: M2 (h) (antagonist). Format: binding. Particulars: 1 micromolar, read-out: percentage of inhibition of activity.
Description: as §1

For another test, the target named is T10, NK2 (Homo sapiens, UniProt P21452).
T10 construct: purchased Eurofins Pharma Discovery Services (KinaseProfiler; Cerep BioPrint panel)
T10 sequence (P21452 whole entry): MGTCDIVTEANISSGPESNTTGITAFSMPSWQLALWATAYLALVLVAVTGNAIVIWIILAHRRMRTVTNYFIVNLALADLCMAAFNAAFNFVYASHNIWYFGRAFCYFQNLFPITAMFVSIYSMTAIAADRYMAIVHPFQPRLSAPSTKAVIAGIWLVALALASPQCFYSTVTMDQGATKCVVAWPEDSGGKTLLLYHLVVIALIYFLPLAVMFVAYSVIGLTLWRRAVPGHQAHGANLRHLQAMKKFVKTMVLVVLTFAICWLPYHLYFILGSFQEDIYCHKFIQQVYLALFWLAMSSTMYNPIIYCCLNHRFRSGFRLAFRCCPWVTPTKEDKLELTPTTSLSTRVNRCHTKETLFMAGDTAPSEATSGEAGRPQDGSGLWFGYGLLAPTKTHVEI
Kind of test: BioPrint panel: NK2 (h) (agonist). Format: binding. The note with it: 1 micromolar, read-out: percentage of inhibition of activity.
Description: as §1

The target in another test is T11, delta 2 (DOP) (Homo sapiens, UniProt P41143).
T11 construct: purchased Eurofins Pharma Discovery Services (KinaseProfiler; Cerep BioPrint panel)
T11 sequence (P41143 whole entry): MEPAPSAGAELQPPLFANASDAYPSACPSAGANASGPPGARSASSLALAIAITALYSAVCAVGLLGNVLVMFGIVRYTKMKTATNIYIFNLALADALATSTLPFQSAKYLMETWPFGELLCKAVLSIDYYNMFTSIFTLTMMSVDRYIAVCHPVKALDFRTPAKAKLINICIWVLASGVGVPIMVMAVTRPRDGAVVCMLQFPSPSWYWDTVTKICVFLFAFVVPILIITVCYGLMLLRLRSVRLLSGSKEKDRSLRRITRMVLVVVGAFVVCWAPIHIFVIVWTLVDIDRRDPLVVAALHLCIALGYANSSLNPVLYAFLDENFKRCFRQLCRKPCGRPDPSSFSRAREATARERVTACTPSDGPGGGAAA
Kind of test: BioPrint panel: delta 2 (DOP) (h) (agonist). The test is classed as binding. Particulars: 1 micromolar, read-out: percentage of inhibition of activity.
Description: as §1

A further test has as its target T12, kappa (KOP) (Rattus norvegicus, UniProt P34975).
T12 construct: purchased Eurofins Pharma Discovery Services (KinaseProfiler; Cerep BioPrint panel)
Kind of test: BioPrint panel: kappa (KOP) (agonist). Format: binding. The note with it: 1 micromolar, read-out: percentage of inhibition of activity.
Description: as §1

The test system of another test is PCP. Kind of test: BioPrint panel: PCP (antagonist). Format: binding. The note with it: 1 micromolar.
Description: as §1

In a further test the target is T13, 5-HT3 (Homo sapiens, UniProt P46098).
T13 construct: purchased Eurofins Pharma Discovery Services (KinaseProfiler; Cerep BioPrint panel)
Kind of test: BioPrint panel: 5-HT3 (h) (antagonist). The test is classed as binding. The note with it: 1 micromolar, read-out: percentage of inhibition of activity.
Description: as §1

In another test the target is T14, 5-HT4e (Homo sapiens, UniProt Q13639).
T14 construct: purchased Eurofins Pharma Discovery Services (KinaseProfiler; Cerep BioPrint panel)
Kind of test: BioPrint panel: 5-HT4e (h) (antagonist). The test is classed as binding. The note with it: 1 micromolar, read-out: percentage of inhibition of activity.
Description: as §1

The next test has as its target T15, sst1 (Homo sapiens, UniProt P30872).
T15 construct: purchased Eurofins Pharma Discovery Services (KinaseProfiler; Cerep BioPrint panel)
Kind of test: BioPrint panel: sst1 (h) (agonist). The test is classed as binding. The note with it: 1 micromolar, read-out: percentage of inhibition of activity.
Description: as §1

Test [2] has as its system Ca2+ channel (L, verapamil site). Kind of test: BioPrint panel: Ca2+ channel (L, verapamil site) (antagonist). The test is classed as binding. The note with it: 1 micromolar.
Description: as §1

The target of the next test is T16, dopamine transporter (Homo sapiens, UniProt Q01959).
T16 construct: purchased Eurofins Pharma Discovery Services (KinaseProfiler; Cerep BioPrint panel)
T16 sequence (Q01959 whole entry): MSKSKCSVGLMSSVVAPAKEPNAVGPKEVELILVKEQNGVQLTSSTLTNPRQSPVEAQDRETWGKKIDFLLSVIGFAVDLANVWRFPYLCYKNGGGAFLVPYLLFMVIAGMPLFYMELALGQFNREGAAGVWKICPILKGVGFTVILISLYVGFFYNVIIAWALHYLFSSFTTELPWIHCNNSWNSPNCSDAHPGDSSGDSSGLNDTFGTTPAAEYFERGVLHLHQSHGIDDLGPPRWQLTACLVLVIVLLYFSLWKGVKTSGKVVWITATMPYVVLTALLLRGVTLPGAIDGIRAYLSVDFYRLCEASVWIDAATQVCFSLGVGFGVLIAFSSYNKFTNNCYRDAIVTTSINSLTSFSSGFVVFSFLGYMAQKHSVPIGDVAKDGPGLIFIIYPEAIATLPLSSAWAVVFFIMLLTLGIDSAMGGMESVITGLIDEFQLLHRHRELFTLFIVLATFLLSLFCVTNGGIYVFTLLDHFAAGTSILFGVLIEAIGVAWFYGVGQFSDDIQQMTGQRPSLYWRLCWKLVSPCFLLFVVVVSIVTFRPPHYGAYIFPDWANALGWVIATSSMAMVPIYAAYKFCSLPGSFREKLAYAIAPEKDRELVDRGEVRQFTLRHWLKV
Kind of test: BioPrint panel: dopamine transporter (h) (antagonist). The test is classed as binding. The note with it: 1 micromolar, read-out: percentage of inhibition of activity.
Description: as §1

For test [3], the target named is T17, choline transporter (CHT1) (Homo sapiens, UniProt Q9GZV3).
T17 construct: purchased Eurofins Pharma Discovery Services (KinaseProfiler; Cerep BioPrint panel)
Kind of test: BioPrint panel: choline transporter (CHT1) (h) (antagonist). The test is classed as binding. Particulars: 1 micromolar, read-out: percentage of inhibition of activity.
Description: as §1

The target in another test is T18, 5-HT transporter (Homo sapiens, UniProt P31645).
T18 construct: purchased Eurofins Pharma Discovery Services (KinaseProfiler; Cerep BioPrint panel)
Kind of test: BioPrint panel: 5-HT transporter (h) (antagonist). Format: binding. Particulars: 1 micromolar, read-out: percentage of inhibition of activity.
Description: as §1

A further test concerns the target T19, PDE4D2 (Homo sapiens, UniProt Q08499).
T19 construct: purchased Eurofins Pharma Discovery Services (KinaseProfiler; Cerep BioPrint panel)
Kind of test: BioPrint panel: PDE4D2 (h). The test is classed as biochemical. Particulars: 1 micromolar, read-out: percentage of inhibition of activity.
Description: as §1

The next test concerns HIV-1 protease. Kind of test: BioPrint panel: HIV-1 protease. Format: biochemical. Particulars: 1 micromolar.
Description: as §1

A further test addresses T20, MMP-1 (Homo sapiens, UniProt P03956).
T20 construct: purchased Eurofins Pharma Discovery Services (KinaseProfiler; Cerep BioPrint panel)
Kind of test: BioPrint panel: MMP-1 (h). Particulars: 1 micromolar. The test is classed as biochemical.
Description: as §1

For the next test, the target named is T21, Fyn (Homo sapiens, UniProt P06241).
T21 construct: purchased Eurofins Pharma Discovery Services (KinaseProfiler; Cerep BioPrint panel)
Kind of test: BioPrint panel: Fyn kinase (h). Format: biochemical. Particulars: 1 micromolar, read-out: percentage of inhibition of activity.
Description: as §1

The target in the next test is T22, Lyn A kinase (Homo sapiens, UniProt P07948).
T22 construct: purchased Eurofins Pharma Discovery Services (KinaseProfiler; Cerep BioPrint panel)
T22 sequence (P07948 whole entry): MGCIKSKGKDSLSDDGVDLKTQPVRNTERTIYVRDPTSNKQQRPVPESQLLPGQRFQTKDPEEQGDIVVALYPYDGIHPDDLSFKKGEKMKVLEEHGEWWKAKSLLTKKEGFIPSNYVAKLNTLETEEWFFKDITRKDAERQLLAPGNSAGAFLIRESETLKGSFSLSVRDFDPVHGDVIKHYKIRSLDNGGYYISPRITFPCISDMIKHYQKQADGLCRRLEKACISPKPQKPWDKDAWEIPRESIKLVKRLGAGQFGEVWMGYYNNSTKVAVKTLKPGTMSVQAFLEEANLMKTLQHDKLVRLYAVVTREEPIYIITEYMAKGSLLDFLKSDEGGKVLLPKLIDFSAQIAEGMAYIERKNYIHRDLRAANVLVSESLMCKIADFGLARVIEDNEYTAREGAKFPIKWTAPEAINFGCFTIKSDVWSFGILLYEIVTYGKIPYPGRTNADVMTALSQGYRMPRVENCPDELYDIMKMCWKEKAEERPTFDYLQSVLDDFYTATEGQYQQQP
Kind of test: BioPrint panel: Lyn A kinase (h). Format: biochemical. Particulars: 1 micromolar, read-out: percentage of inhibition of activity.
Description: as §1

Another test relates to LAD2 cells degranulation. Kind of test: Syk dependent LAD2 cells degranulation. The test is classed as cell-based, human. Here is the method:
Normal human bronchial epithelial cells (NHBE) (Lonza CC-2540,) corresponding to 2 different lots derived from 2 human healthy donors, henceforth referred to as donors #1 and #2, were purchased from Lonza, who provided the cells after obtaining permission for use in research applications by informed consent. Cells were cultured in 5% CO2 at 37°C according to the manufacturer´s instructions using Lonza´s Bronchial Epithelial Basal Medium (BEBM) (CC-3171) supplemented with Lonza´s Bronchial Epithelial Cell Growth Medium bullet kit (BEGM) (CC-4175), and grown in collagen coated T-75 and T-175 tissue culture flasks as required (Becton Dickinson 356485 and 356487). Subculturing after trypsinization and amplification was performed using Lonza´s reagent pack subculture reagents (CC-5034) following the manufacturer´s instructions. CHO-K1 and THP-1 cells were purchased from the ATCC through LGC standards (ATCC CCL-61 and TIB-202 respectively). The LAD2 cell line is a human mast cell line established at the National Institutes of Health (Bethesda, Maryland, U.S.).
Quantification of enzymatic p38 activity and p38-dependent TNF production in THP-1 cells was performed as previously described. Enzymatic Syk kinase activity assays and Syk dependent LAD2 cells degranulation assays were performed as previously described. PI3Kδ dependent pAkt phosphorylation in macrophage colony-stimulating factor (M-CSF) stimulated THP-1 cells was measured as previously described.

T15 sequence (P30872 whole entry): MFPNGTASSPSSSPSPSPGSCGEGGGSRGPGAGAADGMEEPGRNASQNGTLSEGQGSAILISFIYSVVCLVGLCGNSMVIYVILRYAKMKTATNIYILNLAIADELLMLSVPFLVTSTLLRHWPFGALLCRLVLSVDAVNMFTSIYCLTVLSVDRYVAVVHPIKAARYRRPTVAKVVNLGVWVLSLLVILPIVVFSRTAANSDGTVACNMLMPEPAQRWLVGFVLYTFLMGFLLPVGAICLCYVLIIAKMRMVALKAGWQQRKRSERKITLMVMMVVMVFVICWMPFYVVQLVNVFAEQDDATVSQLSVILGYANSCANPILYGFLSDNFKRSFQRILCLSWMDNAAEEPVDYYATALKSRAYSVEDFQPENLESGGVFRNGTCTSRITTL

`Cn1cc(-c2cccc(-c3nc(C(=O)NC4C5CC6CC4CC(O)(C6)C5)c(N)nc3N)c2)cn1` (stereo not drawn) [compound 4]: the inhibition at 1 µM at PDE6 (1 μM, read-out: inhibition of PDE6) was 55%; on PDE6 (1 micromolar, PDE6 (non-selective), read-out: percentage of inhibition of activity), 55.6%; at A2B, -3%; on A3, 3.5%; on B2, -1%; at CB1, 3.7%. The inhibition at 1 µM is -12.2% on CB2; 2.3% at D1; 14.2% on BLT1 (LTB4); 6.1% on CysLT1 (LTD4); 19.5% at M2; -1.8% on NK2. The inhibition at 1 µM at delta 2 (DOP) is -0.2%; at kappa (KOP), 11.8%; on 5-HT3 it was -0.4%; on 5-HT4e, 3.8%; at sst1, 1.2%; on dopamine transporter, 7.5%. In addition, the inhibition at 1 µM in test [3] was 3%; at 5-HT transporter it was -8.5%; at PDE4D2, 3%; at Fyn it was -9.2%; on Lyn A kinase it was 0.1%. For the same compound, the “percentage of inhibition of activity” value is listed as -6.8% in the test with NMDA; -5.3% in test [1]; -2.1% in the test on TNF-alpha; 11.5% with I1; -2.1% in the test with PCP; 6.4% in [2]. For the same compound, the “percentage of inhibition of activity” value is -16.1% in the test with HIV-1 protease and “INTER” on MMP-1.

As to `CS(=O)(=O)N1CCN(c2ccc(Nc3ncc(C(N)=O)c(NC4CC4)n3)cc2)CC1` [compound 5], the IC50 with LAD2 cells degranulation (Homo sapiens, LAD2, geometric mean, read-out: Activity in reference cell based assay (IC50, μM) (95% CI) LAD2 cells degranulation) was 0.019 µM; in the test on LAD2 cells degranulation (individual values, read-out: Cellular activity (IC50, mM) LAD2 cells degranulation) it was 0.0341 µM and 0.015 µM and 0.0149 µM.

By inhibition is commonly meant the change of the read-out against control, counted positive when it falls. A word on the IC50: it is the concentration that inhibits the measured activity by half.
